3 compounds from patent publication US10065962B2, “Amino pryan ring derivative and composition and use thereof” (Sichuan Haisco Pharmaceutical Co., Ltd., priority 2014, dated 2018) can be followed below.

One series concerns C57 mice. The experiment in a line: Oral glucose tolerance test (OGTT) in mice. It is filed as in vivo. To be noted: 10 mg/kg intragastric, glucose 5 g/kg 60 min after administration. The method, then:
The oral glucose tolerance test (OGTT) was performed to evaluate the hypoglycemic effect of the compounds of the present invention in mice. 8-week old male C57 mice were purchased from Beijing Vital River Laboratory Animal Technology Co., Ltd. (Laboratory Animal Certificate No. SCXK (Beijing) 2012-0001) and used in the test The mice were grouped based on the base level of blood sugar after fasted, with 10 animals per group. The test compounds were formulated into a 1 mg/ml suspension and administered intragastrically at a dose of 10 mg/kg, while a blank agent was administered to the blank control group. 60 min after the administration, a 50% aqueous solution of glucose was dosed (5 g/kg), and the blood sugar level of each mouse was measured with a OneTouch blood glucose meter manufactured by Johnson & Johnson at 0 min, 15 min, 30 min, 45 min, 60 min, and 120 min.

Series [1] in a line: Concentration of the compound in monkey plasma by LC-MS/MS. In kind it is in vivo. To be noted: male, rhesus monkey, Rhesus monkeys, oral 10.0 mg/kg. The method, then: The laboratory animals were healthy male Rhesus monkeys each weighing about 5 kg, provided by Sichuan Primed Bio-tech Group Co. Ltd. Fasted Rhesus monkeys were grouped based on the body weight. […] For the enzymatic activity assay, 40 μl plasma was taken from each test sample, and 10 μl H-Ala-Pro-AFC substrate (0.2 mM) was added thereto, followed by reaction for 15 min. […] The period during which the inhibition of plasma. DPP-IV enzymatic activity was ≥80% was calculated for the test compounds, and the concentration of the compounds in plasma was measured by LC-MS/MS.

The nature of series [2]: Evaluation of pharmacokinetics in rats. It is filed as in vivo. To be noted: rat, whole blood, po, male SD rats, 5 mg/kg intragastric; for Cmax: read-out: Blood drug level Cmax; for half-life: read-out: Half-life T1/2 (converted). The method, then: Male SD rats (purchased from Vital River Laboratory Animal Technology Co. LTD. License No. 11400700005540) each weighing 200 to 240 g were fasted overnight. On the day of experiments, 3 SD rats were each intragastrically administered with 5 mg/kg compound, and a 0.20 ml blood sample was taken from their jugular veins before the administration and 15 min, 30 min, 45 min, 1 h, 2 h, 4 h, 8 h, 12 h, and 24 h after the administration, to an EDTA tube. Acetonitrile containing an internal reference (verapamil 5.00 ng/ml, and glibenclamide 50.0 ng/ml) was added to the blood sample, followed by vigorous vortexing and centrifuging at 13,000 rpm for 10 min. The supernatant was taken for the LC-MS/MS assay. Pharmacokinetics parameters were calculated by using the non-compartment mode in Pharsight Phoenix 6.3.

Another series concerns the target DPP-IV (Mus musculus, UniProt P28843). Put plainly: Effect of single oral administration on the enzymatic activity of DPP-IV in ob/ob mice. To be noted: read-out: DPP-IV enzymatic activity.
In series [3] the target is plasma DPP-IV (Canis lupus familiaris, UniProt A0A8I3Q2I8). To be noted: beagle dogs, oral 10.0 mg/kg, plasma DPP-IV activity.
Procedure: The laboratory animals were male beagle dogs provided by Chengdu Dashuo Biological Sciences and Technology Co., Ltd. Fasted beagle dogs were grouped based on the body weight. The test group was orally administrated with the test compounds at a dose of 10.0 mg/kg. Blood samples were taken at various time points after the administration and subjected to anticoagulation with EDTA-2Na. […] Plasma was taken and preserved at −20° C. For the enzymatic activity assay, 40 μl plasma was taken from each test sample, and 10 μl H-Ala-Pro-AFC substrate (0.2 mM) was added thereto, followed by reaction for 15 nm.
In series [4] the target is T1, plasma DPP-IV (Rattus norvegicus, UniProt P14740).
T1 construct: from tissue; host or cells: plasma of SD rats
The experiment in a line: Enzymatic screening experiment on plasma DPP-IV in rats. It is filed as in vivo. To be noted: SD rats, oral 3.0 mg/kg, plasma DPP-IV activity. The text has this: Fasted rats were grouped based on the body weight.

What is called AUC(0-t) is exposure summed from dosing to a finite time, without extrapolation to infinity. As a reminder, the Cmax is the maximum level reached in the sampled fluid or tissue.

The structures appear in SMILES notation. Read-outs that look alike come from different tables or passages of the source.

DPP-IV, sequence (P28843 37-760 limits assumed): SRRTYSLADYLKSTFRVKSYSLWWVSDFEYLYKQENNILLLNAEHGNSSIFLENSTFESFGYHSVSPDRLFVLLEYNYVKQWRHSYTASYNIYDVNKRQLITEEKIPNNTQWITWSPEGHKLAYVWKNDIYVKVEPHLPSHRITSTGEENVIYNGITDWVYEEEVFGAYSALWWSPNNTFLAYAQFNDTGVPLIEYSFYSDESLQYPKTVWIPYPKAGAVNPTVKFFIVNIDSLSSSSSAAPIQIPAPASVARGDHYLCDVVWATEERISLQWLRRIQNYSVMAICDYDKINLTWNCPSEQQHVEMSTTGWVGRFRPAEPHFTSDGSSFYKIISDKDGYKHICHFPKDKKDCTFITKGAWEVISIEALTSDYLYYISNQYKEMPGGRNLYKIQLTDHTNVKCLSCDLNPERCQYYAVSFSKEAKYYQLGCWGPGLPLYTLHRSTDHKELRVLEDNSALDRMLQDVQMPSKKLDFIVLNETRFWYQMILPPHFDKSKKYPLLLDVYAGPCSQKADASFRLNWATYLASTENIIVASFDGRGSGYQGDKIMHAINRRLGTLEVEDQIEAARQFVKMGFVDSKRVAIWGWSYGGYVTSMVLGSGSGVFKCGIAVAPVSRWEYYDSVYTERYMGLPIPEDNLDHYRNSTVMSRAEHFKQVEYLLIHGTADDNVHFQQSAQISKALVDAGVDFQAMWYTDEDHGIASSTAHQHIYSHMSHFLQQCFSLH
plasma DPP-IV (Canis lupus familiaris, UniProt A0A8I3Q2I8), sequence (A0A8I3Q2I8 1-765): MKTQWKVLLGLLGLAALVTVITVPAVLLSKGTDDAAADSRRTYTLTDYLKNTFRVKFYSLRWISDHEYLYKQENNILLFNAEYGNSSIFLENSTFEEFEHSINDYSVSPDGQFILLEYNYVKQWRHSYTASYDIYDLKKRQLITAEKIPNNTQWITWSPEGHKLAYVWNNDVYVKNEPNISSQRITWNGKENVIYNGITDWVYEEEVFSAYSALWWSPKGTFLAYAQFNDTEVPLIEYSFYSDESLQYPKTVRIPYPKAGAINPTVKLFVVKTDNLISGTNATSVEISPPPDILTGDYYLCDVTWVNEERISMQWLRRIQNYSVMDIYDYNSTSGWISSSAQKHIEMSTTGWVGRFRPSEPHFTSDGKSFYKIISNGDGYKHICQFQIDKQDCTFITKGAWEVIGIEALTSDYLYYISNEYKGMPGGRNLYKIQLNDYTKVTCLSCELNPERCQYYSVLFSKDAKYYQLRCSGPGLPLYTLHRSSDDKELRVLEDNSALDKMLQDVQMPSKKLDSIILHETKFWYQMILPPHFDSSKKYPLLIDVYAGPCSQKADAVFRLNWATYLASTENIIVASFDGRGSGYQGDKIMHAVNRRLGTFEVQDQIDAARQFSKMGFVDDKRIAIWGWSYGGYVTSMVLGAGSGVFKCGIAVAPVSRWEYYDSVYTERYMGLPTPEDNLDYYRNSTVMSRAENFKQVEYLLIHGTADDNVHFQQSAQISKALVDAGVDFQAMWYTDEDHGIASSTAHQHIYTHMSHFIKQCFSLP
T1 sequence (P14740 37-767 limits assumed): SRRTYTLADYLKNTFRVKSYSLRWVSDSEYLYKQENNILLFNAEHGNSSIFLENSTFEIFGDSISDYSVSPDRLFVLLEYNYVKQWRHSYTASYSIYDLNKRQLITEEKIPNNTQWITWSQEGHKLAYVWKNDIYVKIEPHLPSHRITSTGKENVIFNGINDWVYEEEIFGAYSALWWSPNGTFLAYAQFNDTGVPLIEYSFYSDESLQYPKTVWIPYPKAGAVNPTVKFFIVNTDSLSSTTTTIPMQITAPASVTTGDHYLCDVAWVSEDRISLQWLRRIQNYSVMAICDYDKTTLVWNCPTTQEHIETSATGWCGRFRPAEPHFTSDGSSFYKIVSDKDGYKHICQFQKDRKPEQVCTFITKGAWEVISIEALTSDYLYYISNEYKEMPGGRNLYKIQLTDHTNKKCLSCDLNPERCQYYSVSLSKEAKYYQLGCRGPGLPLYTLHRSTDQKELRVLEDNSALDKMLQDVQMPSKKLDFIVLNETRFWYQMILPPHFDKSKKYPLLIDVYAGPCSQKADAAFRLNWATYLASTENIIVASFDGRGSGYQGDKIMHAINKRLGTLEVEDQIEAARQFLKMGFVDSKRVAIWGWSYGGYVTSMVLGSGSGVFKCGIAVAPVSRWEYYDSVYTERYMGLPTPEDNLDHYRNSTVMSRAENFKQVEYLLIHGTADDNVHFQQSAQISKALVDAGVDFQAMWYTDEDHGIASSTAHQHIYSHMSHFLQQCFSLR

For the compound `N[C@H]1C[C@@H](N2Cc3cn(S(=O)(=O)C4CC4)nc3C2)[C@@H](C(F)(F)F)O[C@@H]1c1cc(F)ccc1F` [Compound 1], the “Decrease in AUC (blood sugar, OGTT)” value in the series on C57 mice is recorded as 27.20%.
Compound `CS(=O)(=O)n1cc2c(n1)CN([C@@H]1C[C@H](N)[C@@H](c3cc(F)ccc3F)O[C@@H]1C(F)(F)F)C2` [Compound 3, (2R,3S,5R,6S)-2-(2,5-difluorophenyl)-5-(2-(methylsulfonyl)pyrrolo[3,4-c]pyrazol-5(2H,4H,6H)-yl)-6-(trifluoromethyl)tetrahydro-2H-pyran-3-amine] returned a concentration at 0 h in series [1] (0 h) of 0 nM. In series [1] (0.5 h), this compound came in with a concentration at 0.5 h of 270 nM. For the same compound, in series [1] (1 h), the concentration at 1 h is 1060 nM. For the same compound, in series [1] (2 h), the concentration at 2 h came to 5.64 µM. The compound also displayed a concentration at 4 h in series [1] (4 h) of 2560 nM. Besides, the concentration at 8 h in series [1] (8 h) amounted to 4.22 µM. In series [1] (12 h), this compound gave a concentration at 12 h of 4.01 µM. Besides, the concentration at 24 h in series [1] (24 h) is 2930 nM. Besides, the concentration at 32 h in series [1] (32 h) came out at 2560 nM. In series [1] (48 h), the concentration at 48 h was found to be 1940 nM. This compound registered a concentration at 56 h in series [1] (56 h) of 1280 nM. This compound gave a concentration at 72 h in series [1] (72 h) of 1120 nM. Moreover, the concentration at 80 h in series [1] (80 h) came to 680 nM. Further, the concentration at 96 h in series [1] (96 h) turned out to be 710 nM. In addition, the concentration at 104 h in series [1] (104 h) was determined as 440 nM. Also, the concentration at 120 h in series [1] (120 h) worked out at 340 nM. In series [1] (128 h), this compound came in with a concentration at 128 h of 270 nM. The same compound had a concentration at 144 h in series [1] (144 h) of 210 nM. The concentration at 152 h in series [1] (152 h) was 160 nM. Further, the concentration at 168 h in series [1] (168 h) was determined as 140 nM. In series [1] (216 h), this compound displayed a concentration at 216 h of 71 nM. Moreover, the concentration at 240 h in series [1] (240 h) was determined as 41 nM. This compound also returned a concentration at 264 h in series [1] (264 h) of 32 nM. Besides, the “Decrease in AUC (blood sugar, OGTT)” value with C57 mice was found to be 27.99%. In series [2], the AUC(0-t) was 106000 ng·h/mL, the Cmax was found to be 11600 ng/mL and the half-life was 426 min.
As for `CS(=O)(=O)n1cc2c(n1)CN([C@H]1CO[C@H](c3cc(F)ccc3F)[C@@H](N)C1)C2` [Omarigliptin], the response vs control in vivo at 30 mg/kg came to 5.8% on DPP-IV (2 h); 5.4% at DPP-IV (4 h); 5.5% at DPP-IV (10 h); 30% on DPP-IV (24 h); 34.5% at DPP-IV (34 h); 58.1% on DPP-IV (48 h). The response vs control in vivo at 30 mg/kg on DPP-IV (58 h) came out at 49.9%; at DPP-IV (72 h), 66.7%. The “Decrease in AUC (blood sugar, OGTT)” value in the series on C57 mice is listed as 22.27%. Besides, the “Duration of Inhibition ≥80%” value on plasma DPP-IV [3] stood at 162 h. The AUC(0-t) in series [2] was 66800 ng·h/mL. In series [2], the Cmax came to 9290 ng/mL. In series [2], the half-life is 366 min. Besides, the “Duration of Inhibition ≥70%” value at plasma DPP-IV [4] turned out to be 55 h.
